Reference: patent US12545672B2, “Antibiotic compounds, methods of manufacturing the same, pharmaceutical compositions containing the same and uses thereof” (Debiopharm International S.A., priority 2018, dated 2026)
Read-outs that look alike come from different tables or passages of the source.

Assays:
[1] = target: Neisseria gonorrhoeae FabI (Neisseria gonorrhoeae, UniProt A0ACH0F547); test: Neisseria gonorrhoeae FabI inhibition assay (NADH consumption)
Neisseria gonorrhoeae = test: MIC50 by CLSI agar dilution on a panel of N. gonorrhoeae clinical isolates; type: cell-based; details: Neisseria gonorrhoeae
Procedure: MIC50: MICs were determined in accordance with the appropriate Clinical and Laboratory Standards Institute (CLSI) methodology by the agar dilution susceptbility testing method in GC agar base.

[2] = agar dilution, GC agar base, minimum of 15 clinical isolates, read-out: MIC50

Chain of Neisseria gonorrhoeae FabI (A0ACH0F547 1-261): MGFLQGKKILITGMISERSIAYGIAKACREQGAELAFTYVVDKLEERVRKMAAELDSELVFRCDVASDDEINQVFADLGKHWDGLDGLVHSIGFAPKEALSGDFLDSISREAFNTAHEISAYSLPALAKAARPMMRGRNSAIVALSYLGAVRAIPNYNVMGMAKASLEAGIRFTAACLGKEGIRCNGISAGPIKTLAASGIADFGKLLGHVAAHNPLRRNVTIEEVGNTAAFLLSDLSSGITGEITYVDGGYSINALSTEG

Row | Compound | IC50 [1] [nM] | MIC50 (Neisseria gonorrhoeae; [2]) [µg/mL] | MIC50 (Neisseria gonorrhoeae) [µg/mL]
1 | Cc1c(CN(C)C(=O)/C=C/c2cnc3c(c2)C[C@@](C)(O)C(=O)N3)oc2ccccc12 (single isomer, unassigned) [Compound 247] | < 10 | – | < 1
2 | Cc1oc2ccccc2c1CN(C)C(=O)/C=C/c1cnc2c(c1)NCC(C)(CO)C(=O)N2 (centres unmarked) [Compound 39, (E)-3-(3-(Hydroxymethyl)-3-methyl-4-oxo-2,3,4,5-tetrahydro-1H-pyrido[2,3-b][1,4]diazepin-8-yl)-N-methyl-N-((2-methylbenzofuran-3-yl)methyl)acrylamide] | < 10 | < 1 | –
3 | O=C1CCNc2cc(/C=C/C(=O)N3C[C@H]4CC(c5ccc(Oc6ncccn6)cc5)=C[C@H]4C3)cnc2N1 [Compound 60, 8-((E)-3-Oxo-3-((3aS,6aR)-5-(4-(pyrimidin-2-yloxy)phenyl)-3,3a,4,6a-tetrahydrocyclopenta[c]pyrrol-2(1H)-yl)prop-1-en-1-yl)-1,2,3,5-tetrahydro-4H-pyrido[2,3-b][1,4]diazepin-4-one] | < 10 | < 1 | –
4 | Cc1oc2ccccc2c1CN(C)C(=O)/C=C/c1cnc2c(c1)NC1(CCOCC1)C(=O)N2 [Compound 64, (E)-N-Methyl-N-((2-methylbenzofuran-3-yl)methyl)-3-(3′-oxo-2,3,3′,4′,5,6-hexahydro-1′H-spiro[pyran-4,2′-pyrido[2,3-b]pyrazin]-7′-yl)acrylamide] | < 10 | < 1 | –
5 | Cc1oc2c(N)cccc2c1CN(C)C(=O)/C=C/c1cnc2c(c1)NCCC(=O)N2 [Compound 75, (E)-N-((7-Amino-2-methylbenzofuran-3-yl)methyl)-N-methyl-3-(4-oxo-2,3,4,5-tetrahydro-1H-pyrido[2,3-b][1,4]diazepin-8-yl)acrylamide] | < 10 | < 1 | –
6 | Cc1c(CN(C)C(=O)/C=C/c2cnc3c(c2)NC(C)(CO)C(=O)N3)oc2ccccc12 (centres unmarked) [Compound 84, (E)-3-(2-(Hydroxymethyl)-2-methyl-3-oxo-1,2,3,4-tetrahydropyrido[2,3-b]pyrazin-7-yl)-N-methyl-N-((3-methylbenzofuran-2-yl)methyl)acrylamide] | < 10 | < 1 | –
7 | Cc1oc2c(Oc3cncs3)cccc2c1CN(C)C(=O)/C=C/c1cnc2c(c1)NCCC(=O)N2 [Compound 101, (E)-N-Methyl-N-((2-methyl-7-(thiazol-5-yloxy)benzofuran-3-yl)methyl)-3-(4-oxo-2,3,4,5-tetrahydro-1H-pyrido[2,3-b][1,4]diazepin-8-yl)acrylamide] | < 10 | < 1 | –
8 | Cc1oc2c(N)cccc2c1CN(C)C(=O)/C=C/c1cnc2c(c1)NCC(C)(C)C(=O)N2 [Compound 109, (E)-N-((7-Amino-2-methylbenzofuran-3-yl)methyl)-3-(3,3-dimethyl-4-oxo-2,3,4,5-tetrahydro-1H-pyrido[2,3-b][1,4]diazepin-8-yl)-N-methylacrylamide] | < 10 | < 1 | –
9 | N#Cc1cccc(Oc2ccc(C3=C[C@H]4CN(C(=O)/C=C/c5cnc6c(c5)NCCC(=O)N6)C[C@H]4C3)cc2)c1 [Compound 123, 3-(4-((3rS,6rR)-2-((E)-3-(4-Oxo-2,3,4,5-tetrahydro-1H-pyrido[2,3-b][1,4]diazepin-8-yl)acryloyl)-1,2,3,3r,4,6r-hexahydrocyclopenta[c]pyrrol-5-yl)phenoxy)benzonitrile] | < 10 | < 1 | –
10 | Cc1c(CN(C)C(=O)/C=C/c2cnc3c(c2)NC[C@@](C)(O)C(=O)N3)oc2cccc(N)c12 [Compound 143, (R,E)-N-((4-amino-3-methylbenzofuran-2-yl)methyl)-3-(3-hydroxy-3-methyl-4-oxo-2,3,4,5-tetrahydro-1H-pyrido[2,3-b][1,4]diazepin-8-yl)-N-methylacrylamide] | < 10 | < 1 | –
11 | Cc1oc2c(Oc3ccc(C#N)cc3)cccc2c1CN(C)C(=O)/C=C/c1cnc2c(c1)NC[C@@](C)(O)C(=O)N2 [Compound 152, (R,E)-N-((7-(4-cyanophenoxy)-2-methylbenzofuran-3-yl)methyl)-3-(3-hydroxy-3-methyl-4-oxo-2,3,4,5-tetrahydro-1H-pyrido[2,3-b][1,4]diazepin-8-yl)-N-methylacrylamide] | < 10 | – | < 1
12 | C[C@@]1(O)CNc2cc(/C=C/C(=O)N3C[C@H]4CC(c5ccc(Oc6ccccc6)cc5)=C[C@H]4C3)cnc2NC1=O [Compound 159, (R)-3-hydroxy-3-methyl-8-((E)-3-oxo-3-((3aS,6aR)-5-(4-phenoxyphenyl)-3,3a,4,6a-tetrahydrocyclopenta[c]pyrrol-2(1H)-yl)prop-1-en-1-yl)-1,2,3,5-tetrahydro-4H-pyrido[2,3-b][1,4]diazepin-4-one] | < 10 | < 1 | –
13 | Cc1c(CN(C)C(=O)/C=C/c2cnc3c(c2)N[C@H](C)[C@@](C)(O)C(=O)N3)oc2ccccc12 [Compound 207, (E)-3-(3-hydroxy-2,3-dimethyl-4-oxo-2,3,4,5-tetrahydro-1H-pyrido[2,3-b][1,4]diazepin-8-yl)-N-methyl-N-((3-methylbenzofuran-2-yl)methyl)acrylamide] | – | < 1 | –

Now from value to compound, other results behind:

Row | IC50 [1] [nM] | MIC50 (Neisseria gonorrhoeae; [2]) [µg/mL] | Compound | MIC50 (Neisseria gonorrhoeae) [µg/mL]
14 | < 10 | – | Cc1c(CN(C)C(=O)/C=C/c2cnc3c(c2)N[C@H](C)[C@@](C)(O)C(=O)N3)oc2ccccc12 (racemic) [Compound 207, (E)-3-(3-hydroxy-2,3-dimethyl-4-oxo-2,3,4,5-tetrahydro-1H-pyrido[2,3-b][1,4]diazepin-8-yl)-N-methyl-N-((3-methylbenzofuran-2-yl)methyl)acrylamide] | –
15 | < 10 | < 1 | Cc1oc2ccccc2c1CN(C)C(=O)/C=C/c1cnc2c(c1)NC[C@@](C)(CO)C(=O)N2 (single isomer, unassigned) [Compound 40] | –
16 | < 10 | < 1 | Cc1oc2ccccc2c1CN(C)C(=O)/C=C/c1cnc2c(c1)NC[C@](C)(CO)C(=O)N2 (single isomer, unassigned) [Compound 41] | –
17 | < 10 | < 1 | Cc1c(CN(C)C(=O)/C=C/c2cnc3c(c2)N[C@H](C)[C@H](O)C(=O)N3)oc2ccccc12 (single isomer, unassigned) [Compound 150] | –
18 | < 10 | < 1 | Cc1oc2ccccc2c1CN(C)C(=O)/C=C/c1cnc2c(c1)N[C@H](C)[C@H](O)C(=O)N2 (single isomer, unassigned) [Compound 151] | –
19 | < 10 | < 1 | Cc1c(CN(C)C(=O)/C=C/c2cnc3c(c2)N[C@@](C)(CO)C(=O)N3)oc2ccccc12 (single isomer, unassigned) [Compound 208] | –
20 | < 10 | < 1 | Cc1c(CN(C)C(=O)/C=C/c2cnc3c(c2)N[C@](C)(CO)C(=O)N3)oc2ccccc12 (single isomer, unassigned) [Compound 209] | –
21 | < 10 | < 1 | Cc1c(CN(C)C(=O)/C=C/c2cnc3c(c2)C=C[C@@](C)(O)C(=O)N3)oc2ccccc12 (single isomer, unassigned) [Compound 260] | –
22 | < 10 | < 1 | N#Cc1ccc(Oc2ccc(C3=C[C@@H]4CN(C(=O)/C=C/c5cnc6c(c5)NCCC(=O)N6)C[C@@H]4C3)cc2)cc1 (stereo in doubt) [Compound 198, 4-(4-((3aR,6aS)-2-((E)-3-(4-oxo-2,3,4,5-tetrahydro-1H-pyrido[2,3-b][1,4]diazepin-8-yl)acryloyl)-1,2,3,3a,4,6a-hexahydrocyclopenta[c]pyrrol-5-yl)phenoxy)benzonitrile] | –
23 | < 10 | < 1 | Cc1c(CN(C)C(=O)/C=C/c2cnc3c(c2)CCCC(=O)N3)oc2cccc(N)c12 [Compound 5, (E)-N-((4-amino-3-methylbenzofuran-2-yl)methyl)-N-methyl-3-(8-oxo-6,7,8,9-tetrahydro-5H-pyrido[2,3-b]azepin-3-yl)acrylamide] | –
24 | < 10 | < 1 | Cc1c(CN(C)C(=O)/C=C/c2cnc3c(c2)NCCC(=O)N3)oc2cccc(N)c12 [Compound 7, (E)-N-((4-amino-3-methylbenzofuran-2-yl)methyl)-N-methyl-3-(4-oxo-2,3,4,5-tetrahydro-1H-pyrido[2,3-b][1,4]diazepin-8-yl)acrylamide] | –
25 | < 10 | < 1 | Cc1c(CN(C)C(=O)/C=C/c2cnc3c(c2)NCC(=O)N3)oc2ccccc12 [Compound 10, (E)-N-methyl-N-((3-methylbenzofuran-2-yl)methyl)-3-(3-oxo-1,2,3,4-tetrahydropyrido[2,3-b]pyrazin-7-yl)acrylamide] | –
26 | < 10 | < 1 | Cc1c(CN(C)C(=O)/C=C/c2cnc3c(c2)NC(C)(C)C(=O)N3)oc2ccccc12 [Compound 19, (E)-3-(2,2-dimethyl-3-oxo-1,2,3,4-tetrahydropyrido[2,3-b]pyrazin-7-yl)-N-methyl-N-((3-methylbenzofuran-2-yl)methyl)acrylamide] | –
27 | < 10 | < 1 | Cc1c(CN(C)C(=O)/C=C/c2cnc3c(c2)NCC(C)(CO)C(=O)N3)oc2ccccc12 (centres unmarked) [Compound 31, (E)-3-(3-(hydroxymethyl)-3-methyl-4-oxo-2,3,4,5-tetrahydro-1H-pyrido[2,3-b][1,4]diazepin-8-yl)-N-methyl-N-((3-methylbenzofuran-2-yl)methyl)acrylamide] | –
28 | < 10 | < 1 | Cc1c(CN(C)C(=O)/C=C/c2cnc3c(c2)NC[C@@](C)(CO)C(=O)N3)oc2ccccc12 [Compound 32, (S,E)-3-(3-(hydroxymethyl)-3-methyl-4-oxo-2,3,4,5-tetrahydro-1H-pyrido[2,3-b][1,4]diazepin-8-yl)-N-methyl-N-((3-methylbenzofuran-2-yl)methyl)acrylamide] | –
29 | < 10 | < 1 | Cc1c(CN(C)C(=O)/C=C/c2cnc3c(c2)NC[C@](C)(CO)C(=O)N3)oc2ccccc12 [Compound 33, (R,E)-3-(3-(hydroxymethyl)-3-methyl-4-oxo-2,3,4,5-tetrahydro-1H-pyrido[2,3-b][1,4]diazepin-8-yl)-N-methyl-N-((3-methylbenzofuran-2-yl)methyl)acrylamide] | –
